Data: PubChem BioAssay (NCI)
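Protocol summary: plate cells (96-well), add compound at 5 concentrations, incubate 48 h, interpolate endpoints linearly. GI50 is the concentration that inhibits growth by half. The concentration for full growth arrest is given as TGI.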

Legend:
Assay in all cases: NCI tumour cell line growth inhibition, 48 h
MCF7 breast = system: MCF7 breast
DU-145 prostate = system: DU-145 prostate
SNB-78 CNS = system: SNB-78 CNS
M19-MEL melanoma = system: M19-MEL melanoma
NCI/ADR-RES ovarian = system: NCI/ADR-RES ovarian
XF 498 CNS = system: XF 498 CNS
HOP-18 NSCLC = system: HOP-18 NSCLC
DMS 114 small cell lung = system: DMS 114 small cell lung
PC-3 prostate = system: PC-3 prostate
LXFL 529 NSCLC = system: LXFL 529 NSCLC

SMILES	TGI (MCF7 breast) [µM]	TGI (DU-145 prostate) [µM]	TGI (SNB-78 CNS) [µM]	TGI (M19-MEL melanoma) [µM]	TGI (NCI/ADR-RES ovarian) [µM]	TGI (XF 498 CNS) [µM]	TGI (HOP-18 NSCLC) [µM]	TGI (DMS 114 small cell lung) [µM]	TGI (PC-3 prostate) [µM]	TGI (LXFL 529 NSCLC) [µM]	GI50 (SNB-78 CNS) [µM]	GI50 (M19-MEL melanoma) [µM]	GI50 (LXFL 529 NSCLC) [µM]	GI50 (HOP-18 NSCLC) [µM]	GI50 (DMS 114 small cell lung) [µM]
C[C@@H](CN1CC(=O)NC(=O)C1)N1CC(=O)NC(=O)C1	498	1430	1480	998	987	201	1180	441	1450						
O=C1c2ccccc2NC1(c1ccccc1)c1c(-c2ccccc2)[nH]c2ccccc12 (stereo not given)			> 100	> 100		99	> 100	> 100		> 100					
CC1=C(C(=O)Nc2cc(=O)n(C)c(=O)n2C)C(c2ccc([N+](=O)[O-])cc2)C(C(=O)Nc2cc(=O)n(C)c(=O)n2C)=C(C)N1			> 100	> 100		> 100	> 100	> 100		> 100					
CC1(C)OB(O)OC1(C)C			> 100			> 100	> 100	> 100		> 100					
O=S(=O)(N/N=C/c1cccc(Cl)c1Cl)c1ccccc1			> 100	> 100		> 100	> 100	90.3		> 100					
CN1C(c2ccccc2)CS(=O)(=O)CS1(=O)=O (stereo not given)			> 100	> 100		> 100	> 100	> 100		> 100					
CN(C)CCNC(=O)c1cccc2c(Nc3ccc(S(N)(=O)=O)cc3)c3ccccc3nc12						1.81	9.2	2.3		2.23					
Cc1ccc(NC(=O)C(=O)CC(=O)C2CCOC2=O)c(C)c1 (stereo not given)			> 100			> 100	> 100	> 100		> 100					
COC(=O)CCC(=O)Nc1cc(Cl)ccc1Cl			> 100	> 100		> 100	> 100	> 100		> 100					
COc1ccc(C(=O)C(c2ccc(OC)cc2)C2OC(=O)C(Cl)=C2Cl)cc1 (stereo not given)			> 100	> 100		> 100	> 100	> 100		> 100					
CC1=C(C(=O)NCc2ccccc2)C(c2ccc([N+](=O)[O-])cc2)C(C(=O)NCc2ccccc2)=C(C)N1			> 100	52.7		> 100	> 100	> 100		> 100					
CC(=O)C1C(=O)NC(=O)C1=O (stereo not given)			> 100	> 100		> 100	> 100	> 100		> 100					
O=C(O)/C(Cl)=C(\Cl)C(=O)NC1C2CC3CC(C2)CC1C3 (stereo not given)			> 100	> 100		> 100	> 100	> 100		> 100					
O/N=C1/C(=C/c2ccc(Oc3ccccc3)cc2)CCCC1C(NO)c1ccc(Oc2ccccc2)cc1 (stereo not given)			> 100	> 100		> 100	> 100	> 100		> 100					
COc1cc(O)c2c(c1)C(=O)C=C(Cl)C2=O			> 100	> 100		> 100	> 100	> 100		> 100					
COc1cc2c(cc1OC)C(OC)N(C)c1c-2ccc2cc3c(cc12)OCO3 (stereo not given)	12.6	> 75	> 75	4.08	> 55.3	2.95	68.5	12.3	> 75						
CCOC(=O)C(=O)Nc1ccc(Cl)cc1C			> 100	> 100		> 100	> 100	> 100		> 100					
O=C(Nc1cccc(Cc2cccc(NC(=O)c3ccccc3)c2)c1)c1ccccc1				> 100			> 100	> 100		> 100					
COc1ccc(C[C@@H]2NC[C@@H](O)[C@@H]2OC(C)=O)cc1		0.0947		> 100			6.35	> 100	0.255	24.1					
NCCN.NCCN.O=C[O-].O=C[O-].[Co+3].[O-][Cl+3]([O-])([O-])[O-]			> 100	> 100			> 100	> 100		> 100	> 100	> 100	> 100	> 100	> 100
Cc1nc(-c2ccccc2)cc2c1c(=O)oc1ccccc12			> 100				> 100	> 100		> 100					
CN(CCc1ccccn1)c1nc(=[N+](C)C)ss1			> 100	> 100		> 100	> 100	> 100		> 100					
CN(/N=C/c1cccc2cccnc12)c1ccc([N+](=O)[O-])cc1			> 100	> 100		> 100	> 100	> 100		> 100					
CN(CC#N)C1CCCC[C@H]1O (stereo not given in full)			> 100			> 100	> 100	> 100		> 100					
COc1ccc(N/N=C(\CCN(C)C)c2ccccc2)cc1			26.9	13.5			> 100	27.6		3.8					
